From publication PMC10823477 (Journal of Medicinal Chemistry, 2023)
“Also recorded” adds a separate entry of the source.

Key:
5-HT2A receptor = 5-HT2A receptor (Mus musculus, UniProt P35363); test: head-twitch response; assay type: in vivo, C57BL/6 mice; settings: mice, 1 mg/kg p.o.; for HTR induction, result in words: 15–30 min window
[1] = system: mice subjected to a Mild Chronic Stress Paradigm (MCSP); test: marble-burying test; assay type: in vivo, C57BL/6 mice; settings: for marble-burying behavior in stressed mice, 1 day postdose, in words / marble-burying behavior in stressed mice, up to 7 days, in words: MCSP mice, single p.o. dose, psilocybin 1 mg/kg, NPDs 10 mg/kg
[2] = plasma pharmacokinetics of psilocin and parent prodrug in healthy mice; settings: for time up to which parent derivative is detected systemically postdose: plasma parent prodrug; for psilocin AUC(0–tlast) relative to ES02: 10 mg/kg p.o., within first 8 h
[3] = human participants, 25 mg psilocybin; cited from earlier work
[4] = humans; cited from earlier work

5-HT2A receptor, sequence (P35363 whole entry): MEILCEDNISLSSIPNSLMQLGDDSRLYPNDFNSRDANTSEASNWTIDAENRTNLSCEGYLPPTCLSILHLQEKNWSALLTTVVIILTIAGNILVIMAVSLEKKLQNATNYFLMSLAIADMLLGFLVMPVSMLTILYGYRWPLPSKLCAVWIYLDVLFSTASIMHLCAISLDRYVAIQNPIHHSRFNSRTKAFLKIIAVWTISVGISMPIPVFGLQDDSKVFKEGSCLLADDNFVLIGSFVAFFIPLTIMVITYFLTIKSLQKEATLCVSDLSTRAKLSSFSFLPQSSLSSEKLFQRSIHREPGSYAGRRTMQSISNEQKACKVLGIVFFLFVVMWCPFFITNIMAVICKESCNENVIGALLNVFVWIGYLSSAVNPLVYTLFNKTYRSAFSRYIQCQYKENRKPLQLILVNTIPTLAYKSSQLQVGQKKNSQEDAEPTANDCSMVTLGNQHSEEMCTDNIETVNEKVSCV

CN(C)CCc1c[nH]c2cccc(OC(=O)c3c(F)c(F)c(F)c(F)c3F)c12 [ES03, 3-(2-(Dimethylamino)ethyl)-1H-indol-4-yl 2,3,4,5,6-pentafluorobenzoate]
HTR induction, result in words (5-HT2A receptor; 1 mg/kg): induced HTR at an intensity statistically equivalent to the natural psychedelic compound; also recorded: produced HTR responses equivalent to psilocybin

CN(C)CCc1c[nH]c2cccc(OC(=O)OCC3CC3)c12 [C03, Cyclopropylmethyl (3-(2-(Dimethylamino)ethyl)-1H-indol-4-yl) Carbonate]
HTR induction, result in words (5-HT2A receptor): appeared not to induce a notable hallucinogenic effect

CN(C)CCc1c[nH]c2cccc(OC(=O)OCc3ccccc3)c12 [C02, Benzyl (3-(2-(Dimethylamino)ethyl)-1H-indol-4-yl) Carbonate]
HTR induction, result in words (5-HT2A receptor): statistically significant psychomimetic effects in healthy mice

CN(C)CCc1c[nH]c2cccc(OC(=O)CC3CC3)c12 [ES02, 3-(2-(Dimethylamino)ethyl)-1H-indol-4-yl 2-cyclopropylacetate]
HTR induction, result in words (5-HT2A receptor): induced HTR at an intensity statistically equivalent to the natural psychedelic compound
marble-burying behavior in stressed mice, 1 day postdose, in words [1]: significant reduction in marble-burying behavior

CCCC(=O)OCOc1cccc2[nH]cc(CCN(C)C)c12 [EE01, ((3-(2-(Dimethylamino)ethyl)-1H-indol-4-yl)oxy)methyl Butyrate]
HTR induction, result in words (5-HT2A receptor): appeared not to induce a notable hallucinogenic effect

CN(C)CCc1cn(C(=O)OCc2ccccc2)c2cccc(OC(=O)OCc3ccccc3)c12 [C01, Benzyl 4-(((Benzyloxy)carbonyl)oxy)-3-(2-(dimethylamino)ethyl)-1H-indole-1-carboxylate]
HTR induction, result in words (5-HT2A receptor): ineffective in inducing HTR

CC(C)[Si](Oc1cccc2[nH]cc(CCN(C)C)c12)(C(C)C)C(C)C [SE02, N,N-Dimethyl-2-(4-((triisopropylsilyl)oxy)-1H-indol-3-yl)ethanamine]
HTR induction, result in words (5-HT2A receptor): induced notable HTR
time up to which parent derivative is detected systemically postdose [2]: up to 8 h

CN(C)CCc1c[nH]c2cccc(OC(=O)c3cccc4c3OCCO4)c12 [ES04, 3-(2-(Dimethylamino)ethyl)-1H-indol-4-yl 2,3-dihydrobenzo[b][1,4]dioxine-5-carboxylate]
HTR induction, result in words (5-HT2A receptor): appeared not to induce a notable hallucinogenic effect

COc1ccc(C(=O)Oc2cccc3[nH]cc(CCN(C)C)c23)cc1 [ES01, 3-(2-(Dimethylamino)ethyl)-1H-indol-4-yl 4-Methoxybenzoate]
HTR induction, result in words (5-HT2A receptor; 1 mg/kg): induced HTR at an intensity statistically equivalent to the natural psychedelic compound; also recorded: produced HTR responses equivalent to psilocybin
marble-burying behavior in stressed mice, 1 day postdose, in words [1]: significant reduction in marble-burying behavior
marble-burying behavior in stressed mice, up to 7 days, in words [1]: completely rescuing the elevated anxiety-like condition to the innate behavioral state up to 7 days after treatment
psilocin AUC(0–tlast) relative to ES02 [2]: greater than twice that of ES02

CN(C)CCc1c[nH]c2cccc(OP(=O)(O)O)c12 [PCB, psilocybin, reference compound]
duration of statistically enhanced HTR relative to vehicle (5-HT2A receptor): up to 90 min
observation window of peak HTR intensity (5-HT2A receptor): 15 to 30 min
marble-burying behavior in stressed mice, 1 day postdose, in words [1]: significantly reduced number of buried marbles
marble-burying behavior in stressed mice, up to 7 days, in words [1]: long-term benefits lasting up to 7 days post-treatment
effect on innate burying behavior in nonstressed mice ([1]; nonstressed mice, 1 mg/kg p.o.): no significant effect on the innate burying behavior in nonstressed mice
duration of systemic psilocin exposure postadministration [3]: up to 24 h
time of peak plasma psilocin level [3]: 2 h
duration of psychedelic episode from time of dosing [4]: up to 6 h

CN(C)CCc1c[nH]c2cccc(OC(=O)SCc3ccccc3)c12 [T01, S-Benzyl O-(3-(2-(Dimethylamino)ethyl)-1H-indol-4-yl) Carbonothioate]
HTR induction, result in words (5-HT2A receptor; 1 mg/kg): induced notable HTR; also recorded: statistically significant psychomimetic effects in healthy mice
marble-burying behavior in stressed mice, 1 day postdose, in words [1]: significant reduction in marble-burying behavior
marble-burying behavior in stressed mice, up to 7 days, in words [1]: completely rescuing the elevated anxiety-like condition to the innate behavioral state up to 7 days after treatment
psilocin (Cmax) produced relative to psilocybin ([2]; 1 mg/kg i.v., 1 mg/kg): three to five times greater than psilocybin; also recorded: approximately four times greater psilocin relative to the natural prodrug
psilocin AUC(0–tlast) relative to ES02 [2]: greater than twice that of ES02

CN(C)CCc1c[nH]c2cccc(O[Si](C)(C)C(C)(C)C)c12 [SE01, 2-(4-((tert-Butyldimethylsilyl)oxy)-1H-indol-3-yl)-N,N-dimethylethanamine]
HTR induction, result in words (5-HT2A receptor): induced notable HTR
time up to which parent derivative is detected systemically postdose [2]: up to 8 h
